Data taken from the NIST ThermoML archive (doi:10.1021/je301167q).

Key:
[1] = xn = mol fraction of the nth substance listed; details: 101 kPa, Liquid; for speed of sound: Sing-around technique in a fixed-path interferometer
[2] = 101 kPa, Liquid; for speed of sound: Sing-around technique in a fixed-path interferometer

CCCCCCCC[n+]1ccn(C)c1.F[B-](F)(F)F [1-methyl-3-octylimidazolium tetrafluoroborate] + CCCCN
[1], x1 = 1
Details | mass density [kg/m3] | speed of sound [m/s]
298.15 K | 1097.61 | 1481.1
308.15 K | 1090.9 | 1453.9
318.15 K | 1084.17 | 1428.2

CCCCCCCCN [1-octanamine] + CCCCCCn1cc[n+](C)c1.F[B-](F)(F)F
[1]
Details | mass density, 298.15 K [kg/m3] | mass density, 308.15 K [kg/m3] | mass density, 318.15 K [kg/m3] | speed of sound, 298.15 K [m/s] | speed of sound, 308.15 K [m/s] | speed of sound, 318.15 K [m/s]
x2 = 0 | 777.45 | 769.46 | 761.47 | 1343.2 | 1303.1 | 1263.5
x2 = 0.2986 | 914.74 | 906.98 | 899.32 | 1365.4 | 1331.6 | 1306.8
x2 = 0.398 | 954.27 | 946.51 | 938.79 | 1379.9 | 1345.6 | 1317.5
x2 = 0.4981 | 991.03 | 983.38 | 975.59 | 1396.2 | 1364.9 | 1333.8
x2 = 0.5999 | 1025.72 | 1017.96 | 1010.27 | 1416.6 | 1386.2 | 1356.4
x2 = 0.6994 | 1057.35 | 1049.51 | 1041.89 | 1437.5 | 1409.6 | 1381.5
x2 = 0.7998 | 1087.45 | 1079.76 | 1072.25 | 1460.3 | 1433.5 | 1408.2
x2 = 0.8945 | 1114.95 | 1107.34 | 1099.87 | 1479.6 | 1455.6 | 1431.7

CCCCN [1-butanamine]
[2]
Details | mass density [kg/m3] | speed of sound [m/s]
298.15 K | 733.33 | 1246.5
308.15 K | 723.67 | 1201.3
318.15 K | 714 | 1156.2

CCCCCCCC[n+]1ccn(C)c1.F[B-](F)(F)F [1-methyl-3-octylimidazolium tetrafluoroborate]
[2]
Details | mass density [kg/m3] | speed of sound [m/s]
298.15 K | 1097.61 | 1481.1
308.15 K | 1090.9 | 1453.9
318.15 K | 1084.17 | 1428.2

CCCCCCCC[n+]1ccn(C)c1.F[B-](F)(F)F [1-methyl-3-octylimidazolium tetrafluoroborate] + CCCCCCCCN
[1], x1 = 1
Details | mass density [kg/m3] | speed of sound [m/s]
298.15 K | 1097.61 | 1481.1
308.15 K | 1090.9 | 1453.9
318.15 K | 1084.17 | 1428.2

CCCCN [1-butanamine] + CCCCCCCC[n+]1ccn(C)c1.F[B-](F)(F)F
[1]
Details | mass density, 298.15 K [kg/m3] | mass density, 308.15 K [kg/m3] | mass density, 318.15 K [kg/m3] | speed of sound, 298.15 K [m/s] | speed of sound, 308.15 K [m/s] | speed of sound, 318.15 K [m/s]
x2 = 0 | 733.33 | 723.67 | 714 | 1246.5 | 1201.3 | 1156.2
x2 = 0.0963 | 817.1 | 807.93 | 800.03 | 1276.5 | 1235 | 1193.1
x2 = 0.1917 | 880.04 | 871.4 | 863.91 | 1309 | 1270.6 | 1232
x2 = 0.2948 | 932.2 | 924.07 | 916.37 | 1344.1 | 1309 | 1274
x2 = 0.3866 | 968.66 | 960.74 | 953.13 | 1371.6 | 1338.8 | 1306.4
x2 = 0.49 | 1001.63 | 993.95 | 986.41 | 1398.9 | 1368.2 | 1337.9
x2 = 0.5895 | 1027.36 | 1019.96 | 1012.6 | 1421.3 | 1391.9 | 1363.3
x2 = 0.7124 | 1053.43 | 1046.28 | 1039.31 | 1442.7 | 1414.8 | 1387.4
x2 = 0.7925 | 1067.91 | 1060.88 | 1053.97 | 1454.2 | 1427.1 | 1400
x2 = 0.8843 | 1082.31 | 1075.48 | 1068.67 | 1465.8 | 1438.8 | 1412.3

CCCCCCn1cc[n+](C)c1.F[B-](F)(F)F [1-hexyl-3-methylimidazolium tetrafluoroborate]
[2]
Details | mass density [kg/m3] | speed of sound [m/s]
298.15 K | 1145.11 | 1496.7
308.15 K | 1137.71 | 1472
318.15 K | 1130.49 | 1447.7

CCCCCCCCN [1-octanamine]
[2]
Details | mass density [kg/m3] | speed of sound [m/s]
298.15 K | 777.45 | 1343.2
308.15 K | 769.46 | 1303.1
318.15 K | 761.47 | 1263.5

CCCCCCn1cc[n+](C)c1.F[B-](F)(F)F [1-hexyl-3-methylimidazolium tetrafluoroborate] + CCCCN
[1], x1 = 1
Details | mass density [kg/m3] | speed of sound [m/s]
298.15 K | 1145.11 | 1496.7
308.15 K | 1137.71 | 1472
318.15 K | 1130.49 | 1447.7

CCCCCCn1cc[n+](C)c1.F[B-](F)(F)F [1-hexyl-3-methylimidazolium tetrafluoroborate] + CCCCCCCCN
[1], x1 = 1
Details | mass density [kg/m3] | speed of sound [m/s]
298.15 K | 1145.11 | 1496.7
308.15 K | 1137.71 | 1472
318.15 K | 1130.49 | 1447.7

CCCCCCCCN [1-octanamine] + CCCCCCCC[n+]1ccn(C)c1.F[B-](F)(F)F
[1]
Details | mass density, 298.15 K [kg/m3] | mass density, 308.15 K [kg/m3] | mass density, 318.15 K [kg/m3] | speed of sound, 298.15 K [m/s] | speed of sound, 308.15 K [m/s] | speed of sound, 318.15 K [m/s]
x2 = 0 | 777.45 | 769.46 | 761.47 | 1343.2 | 1303.1 | 1263.5
x2 = 0.1563 | 851.54 | 843.71 | 835.78 | 1353.1 | 1314.6 | 1276.9
x2 = 0.3025 | 910.65 | 902.92 | 895.08 | 1370.2 | 1334.4 | 1299
x2 = 0.4175 | 951.05 | 943.4 | 935.73 | 1387.6 | 1353.8 | 1320.5
x2 = 0.5225 | 983.58 | 976.2 | 968.62 | 1404.3 | 1372.4 | 1340.9
x2 = 0.6252 | 1011.86 | 1004.63 | 997.3 | 1420.9 | 1390.6 | 1360.7
x2 = 0.7202 | 1035.54 | 1028.44 | 1021.3 | 1436.5 | 1407.1 | 1378.4
x2 = 0.794 | 1052.58 | 1045.53 | 1038.51 | 1449 | 1419.9 | 1392.2
x2 = 0.7994 | 1053.88 | 1046.83 | 1039.75 | 1449.2 | 1421.1 | 1393.2
x2 = 0.8691 | 1069.21 | 1062.23 | 1055.21 | 1461.3 | 1432.7 | 1405.8
x2 = 0.9259 | 1081.47 | 1074.59 | 1067.76 | 1470.5 | 1442.2 | 1416.1

CCCCN [1-butanamine] + CCCCCCn1cc[n+](C)c1.F[B-](F)(F)F
[1]
Details | mass density, 298.15 K [kg/m3] | mass density, 308.15 K [kg/m3] | mass density, 318.15 K [kg/m3] | speed of sound, 298.15 K [m/s] | speed of sound, 308.15 K [m/s] | speed of sound, 318.15 K [m/s]
x2 = 0 | 733.33 | 723.67 | 714 | 1246.5 | 1201.3 | 1156.2
x2 = 0.0994 | 820.09 | 810.83 | 803.47 | 1272.3 | 1231.1 | 1188.8
x2 = 0.2012 | 890.48 | 881.55 | 874.79 | 1305.8 | 1267.4 | 1229
x2 = 0.302 | 946.28 | 937.89 | 930.48 | 1341 | 1305.5 | 1270.1
x2 = 0.4065 | 993.19 | 985.04 | 977.3 | 1376.3 | 1343.8 | 1312
x2 = 0.4959 | 1026.43 | 1018.45 | 1010.64 | 1404.6 | 1374.3 | 1344.3
x2 = 0.5886 | 1055.62 | 1047.87 | 1040.15 | 1428.9 | 1401.1 | 1373.6
x2 = 0.7069 | 1086.83 | 1079.26 | 1071.7 | 1456.2 | 1429.9 | 1403.8
x2 = 0.8126 | 1110.28 | 1102.83 | 1095.43 | 1474.1 | 1450.2 | 1423.8
x2 = 0.8796 | 1123.46 | 1116.13 | 1108.89 | 1483.2 | 1459.8 | 1433.9
